One assay addresses hDGKzeta(1-928)-N-His (Homo sapiens (Human), UniProt Q13574). As to the kind of experiment: DGKzeta ADP Glo assay (in vitro DGK inhibition). It counts as biochemical. The note with it: DLG 125 uM, ATP 50 μM, DGK ζ 2 nM, 1 hour reaction. The method, then:
(§1) DGK α and ζ kinase use ATP to phosphorylate the substrate 1,2-dilauroyl-sn-glycerol (DLG, incorporated in the liposomes). ATP is converted to ADP as a result of this enzymatic reaction. After the kinase reaction, an ATP-depletion reagent is added to terminate the kinase reaction and deplete any remaining ATP, leaving only ADP. Second, a detection reagent is added to simultaneously convert ADP to ATP and allow the newly synthesized ATP to be converted to light using a coupled luciferase/luciferin reaction.
(§2) Purification of both enzymes was performed as previously described by Takahashi et al., PeerJ, 2018 (Takahashi, D.; Sakane, F. Expression and purification of human diacylglycerol kinase alpha from baculovirus-infected insect cells for structural studies. PeerJ 2018, 6, No. e5449).
(§3) A concentrated liposome solution was prepared in assay buffer without DTT and BSA: 2 mM of DLG in 21 mM of total liposome (2 mM DLG/8 mM PS/11 mM PC). […] The reactions were started by addition of DGK α and ζ kinases at 4 nM and 2 nM final concentrations, respectively. After 1 hour reaction, the amount of ADP formed was detected with the ADP-Glo kinase assay (Promega) according to the manufacturer instructions. Compounds were added in 11-points dose response, starting at […], 1:3 dilutions, with a final DMSO concentration of 2%. The multidrop combi was used as a liquid handler and luminescence was read with 0.5 s by the envision reader (PE).
In general terms: ADP-Glo turns the ADP formed in a reaction into a luminescent signal.

The subject of assay [1] is primary human T-cells. Briefly: Proliferation assay after 5 days (CellTiter-Glo, CD3 stimulation; PBS counter screen). It counts as cell-based. The note with it: CD3 stimulation; for Emax: read-out: Emax proliferation (% activation); for EC50: primary human T-cells, CellTiter-Glo after 5 days, EC50 of fitted sigmoidal curve, read-out: Tcell Proliferation CD3 EC50. The procedure, abridged: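 ATP-based luminescence (CellTiter-Glo 2.0, room temperature) measured proliferation 5 days after compound addition to CD3-stimulated or unstimulated primary human T-cells. Flags marked compounds that lowered viability or activated unstimulated cells.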
(Cellular ATP, detected with luciferase, serves as a proxy for viable cell number.)

The subject of assay [2] is primary human T-cells.
The next assay addresses hDGKalpha(1-735)-N-His (Homo sapiens (Human), UniProt P23743). As to the kind of experiment: DGKalpha ADP Glo assay (in vitro DGK inhibition). The format is biochemical. The note with it: DLG 125 uM, ATP 25 μM, DGK α 4 nM, 1 hour reaction. The method, then: as §1, §2, §3
The next assay concerns MV-3 cells. Briefly: T-cell - TCB - MV3 killing assay (MCSP-TCB, RFP object count by Incucyte). It counts as cell-based, human. The note with it: 5 d; for Emax: normalized: MCSP-TCB only = neutral control, 20 μM reference compound A1 = 100%, read-out: MSCP TCB killing MV-3 cells 5 d Emax; for EC50: primary human T-cells + MCSP-TCB, MV-3 RFP cells, read-out: MSCP TCB killing MV-3 cells 5 d EC50.

The mark [3] stands for this setting: Homo sapiens, T-cell, 120 h, 5 days, normalized to reference compound A1 as stimulator control = 100%, DMSO neutral control.

Each structure is given as a SMILES string. Like-named read-outs stand apart in the source and are kept apart here.

hDGKzeta(1-928)-N-His, sequence (Q13574 whole entry): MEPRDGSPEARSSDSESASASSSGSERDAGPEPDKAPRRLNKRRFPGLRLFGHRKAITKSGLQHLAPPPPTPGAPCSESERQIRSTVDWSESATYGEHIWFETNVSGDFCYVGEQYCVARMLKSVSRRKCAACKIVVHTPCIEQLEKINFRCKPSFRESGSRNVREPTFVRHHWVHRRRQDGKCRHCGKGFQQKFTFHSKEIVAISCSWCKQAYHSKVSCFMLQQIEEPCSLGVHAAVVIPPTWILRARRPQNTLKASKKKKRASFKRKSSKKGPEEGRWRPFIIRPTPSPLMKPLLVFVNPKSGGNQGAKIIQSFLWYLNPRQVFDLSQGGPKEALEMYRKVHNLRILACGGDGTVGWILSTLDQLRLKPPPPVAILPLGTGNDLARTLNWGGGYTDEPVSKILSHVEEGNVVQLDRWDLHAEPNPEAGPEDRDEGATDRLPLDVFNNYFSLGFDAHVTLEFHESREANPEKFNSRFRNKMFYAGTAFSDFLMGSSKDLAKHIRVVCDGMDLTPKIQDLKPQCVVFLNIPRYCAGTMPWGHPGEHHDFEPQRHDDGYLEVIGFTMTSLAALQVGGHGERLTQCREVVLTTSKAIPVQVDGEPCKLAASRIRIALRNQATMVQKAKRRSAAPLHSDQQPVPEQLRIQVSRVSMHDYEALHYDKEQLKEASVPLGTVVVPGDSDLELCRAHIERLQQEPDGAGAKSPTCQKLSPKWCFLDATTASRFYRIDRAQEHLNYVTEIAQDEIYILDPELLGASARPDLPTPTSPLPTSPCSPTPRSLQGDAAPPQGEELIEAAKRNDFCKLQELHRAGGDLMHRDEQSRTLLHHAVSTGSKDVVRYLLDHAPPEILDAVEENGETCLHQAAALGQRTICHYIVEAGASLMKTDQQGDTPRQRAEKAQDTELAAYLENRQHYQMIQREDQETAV
hDGKalpha(1-735)-N-His, sequence (P23743 whole entry): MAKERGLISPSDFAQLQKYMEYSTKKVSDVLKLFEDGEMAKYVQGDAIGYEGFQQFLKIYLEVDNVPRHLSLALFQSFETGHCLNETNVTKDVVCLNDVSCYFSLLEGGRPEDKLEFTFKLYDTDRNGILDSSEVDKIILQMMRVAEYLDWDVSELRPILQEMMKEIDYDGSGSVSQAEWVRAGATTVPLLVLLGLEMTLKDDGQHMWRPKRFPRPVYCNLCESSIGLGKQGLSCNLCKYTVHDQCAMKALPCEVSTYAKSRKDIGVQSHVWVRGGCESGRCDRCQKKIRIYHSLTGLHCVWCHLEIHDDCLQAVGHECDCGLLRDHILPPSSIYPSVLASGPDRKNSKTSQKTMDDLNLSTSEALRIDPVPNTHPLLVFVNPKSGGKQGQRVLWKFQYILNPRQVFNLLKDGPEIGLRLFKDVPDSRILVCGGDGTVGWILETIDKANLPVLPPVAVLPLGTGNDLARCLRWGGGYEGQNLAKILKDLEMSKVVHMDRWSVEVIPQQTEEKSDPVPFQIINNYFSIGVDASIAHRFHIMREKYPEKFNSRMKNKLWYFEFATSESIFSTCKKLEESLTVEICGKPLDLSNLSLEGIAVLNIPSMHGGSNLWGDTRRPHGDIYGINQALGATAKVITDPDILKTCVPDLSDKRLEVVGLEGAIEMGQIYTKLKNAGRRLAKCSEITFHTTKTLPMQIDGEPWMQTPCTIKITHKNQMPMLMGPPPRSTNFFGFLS

The IC50 is the concentration that inhibits the measured activity by half. A high value points to a need for much substance. For the molecule `Cc1cc(C)c(-c2nc(-c3cc4c(cc3F)S(=O)(=O)C[C@H](N)C(=O)N4Cc3ccc(Cl)cc3)no2)cn1` [Example 313, (3R)-3-amino-5-[(4-chlorophenyl)methyl]-7-[5-(4,6-dimethyl-3-pyridyl)-1,2,4-oxadiazol-3-yl]-8-fluoro-1,1-dioxo-2,3-dihydro-1λ^6,5-benzothiazepin-4-one], the values for the IC50 at hDGKzeta(1-928)-N-His and against hDGKalpha(1-735)-N-His were 130 nM and 1660 nM, respectively. In the assay on primary human T-cells [1] (setting [3]), the Emax came to 191%. For the same molecule, the EC50 came out at 375 nM in the assay with primary human T-cells [1] (Homo sapiens, T-cell, 120 h) and 1120 nM in the assay on primary human T-cells [2].
Taken in the same sequence, the figures for `Cc1ccc(S(C)(=O)=O)cc1-c1nc(-c2cc3c(cc2F)S(=O)(=O)C[C@H](N)C(=O)N3Cc2ccc(Cl)cc2)no1` [Example 311, (3R)-3-amino-5-[(4-chlorophenyl)methyl]-8-fluoro-7-[5-(2-methyl-5-methylsulfonyl-phenyl)-1,2,4-oxadiazol-3-yl]-1,1-dioxo-2,3-dihydro-1λ^6,5-benzothiazepin-4-one] were 69 nM, 43700 nM, 67%, 1090 nM and 5040 nM.
Taken in the same sequence, the figures for `CC1(C)CN(c2nc(-c3cc4c(cc3F)S(=O)(=O)C[C@H](N)C(=O)N4Cc3ccc(Cl)cc3)no2)CCO1` [Example 205, (3R)-3-amino-5-[(4-chlorophenyl)methyl]-7-[5-(2,2-dimethylmorpholin-4-yl)-1,2,4-oxadiazol-3-yl]-8-fluoro-1,1-dioxo-2,3-dihydro-16,5-benzothiazepin-4-one] were 147 nM, 299 nM, 119%, 2120 nM and 1050 nM.
Taken in the same sequence, the figures for `COC(F)(c1nc(-c2cc3c(cc2F)S(=O)(=O)C[C@H](N)C(=O)N3Cc2ccc(Cl)cc2)no1)C(F)(F)F` (stereo partly drawn) [Example 292, (3R)-3-amino-5-[(4-chlorophenyl)methyl]-8-fluoro-1,1-dioxo-7-[5-(1,2,2,2-tetrafluoro-1-methoxy-ethyl)-1,2,4-oxadiazol-3-yl]-2,3-dihydro-1λ^6,5-benzothiazepin-4-one] were 494 nM, 528 nM, 179%, 31.9 nM and 126 nM.
Take `CC(C)Oc1ccc(CN2C(=O)[C@@H](N)CS(=O)(=O)c3cc(F)c(-c4noc(N5CCOC6(CC6)C5)n4)cc32)cn1` [Example 214, (3R)-3-amino-8-fluoro-5-[(6-isopropoxy-3-pyridyl)methyl]-7-[5-(4-oxa-7-azaspiro[2.5]octan-7-yl)-1,2,4-oxadiazol-3-yl]-1,1-dioxo-2,3-dihydro-1λ^6,5-benzothiazepin-4-one]: the values for the IC50 against hDGKzeta(1-928)-N-His and on hDGKalpha(1-735)-N-His were 100 nM and 214 nM, respectively. Moreover, the Emax with primary human T-cells [1] (setting [3]) was found to be 275%. In addition, the EC50 with primary human T-cells [1] (Homo sapiens, T-cell, 120 h) was found to be 2140 nM; in the assay with primary human T-cells [2], 1500 nM.
Taken in the same sequence, the figures for `CC(C)(C)NC(=O)c1nc(-c2cc3c(cc2F)S(=O)(=O)C[C@H](N)C(=O)N3Cc2ccc(Cl)cc2)no1` [Example 293, 3-[(3R)-3-amino-5-[(4-chlorophenyl)methyl]-8-fluoro-1,1,4-trioxo-2,3-dihydro-1λ^6,5-benzothiazepin-7-yl]-N-tert-butyl-1,2,4-oxadiazole-5-carboxamide] were 1200 nM, 1150 nM, 92%, 2070 nM and 3310 nM.
With `CC(C)Oc1ccc(CN2C(=O)[C@@H](N)CS(=O)(=O)c3cc(F)c(-c4noc(C5CN(C)CC(F)(F)C5)n4)cc32)cc1` (stereo partly drawn) [Example 345, (3R)-3-amino-7-[5-(5,5-difluoro-1-methyl-3-piperidyl)-1,2,4-oxadiazol-3-yl]-8-fluoro-5-[(4-isopropoxyphenyl)methyl]-1,1-dioxo-2,3-dihydro-1λ^6,5-benzothiazepin-4-one], the results for the IC50 on hDGKzeta(1-928)-N-His and on hDGKalpha(1-735)-N-His were 207 nM and 343 nM, respectively. For the same molecule, in the assay on primary human T-cells [1] (setting [3]), the Emax worked out at 152%.
Regarding `N[C@H]1CS(=O)(=O)c2ccc(-c3nnc(N4CCOC(C(F)F)C4)o3)cc2N(Cc2ccc(Cl)cc2)C1=O` (stereo partly drawn) [Example 409, (3R)-3-amino-5-[(4-chlorophenyl)methyl]-7-[5-[2-(difluoromethyl)morpholin-4-yl]-1,3,4-oxadiazol-2-yl]-1,1-dioxo-2,3-dihydro-1λ^6,5-benzothiazepin-4-one], the IC50 came out at 795 nM against hDGKzeta(1-928)-N-His and 2870 nM on hDGKalpha(1-735)-N-His. Further, the Emax in the assay with primary human T-cells [1] (setting [3]) worked out at 95%. In addition, the EC50 in the assay on primary human T-cells [1] (Homo sapiens, T-cell, 120 h) worked out at 3880 nM.
For `N[C@H]1CS(=O)(=O)c2cc(F)c(-c3nnc(NC4CCCC4)o3)cc2N(Cc2ccc(Cl)cc2)C1=O` [Example 455, (3R)-3-amino-5-[(4-chlorophenyl)methyl]-7-[5-(cyclopentylamino)-1,3,4-oxadiazol-2-yl]-8-fluoro-1,1-dioxo-2,3-dihydro-1λ^6,5-benzothiazepin-4-one], the Emax is 115% with primary human T-cells [1] (setting [3]) and 91% in the assay with MV-3 cells (Homo sapiens, MV-3, 120 h). Moreover, the EC50 came out at 339 nM with primary human T-cells [1] (Homo sapiens, T-cell, 120 h); 370 nM in the assay with MV-3 cells; 225 nM in the assay with primary human T-cells [2].
Taken in the same sequence, the figures for `CN(CC(F)(F)F)c1nnc(-c2ccc3c(c2)N(Cc2ccc(Cl)cc2)C(=O)[C@@H](N)CS3(=O)=O)o1` [Example 392, (3R)-3-amino-5-[(4-chlorophenyl)methyl]-7-[5-[methyl(2,2,2-trifluoroethyl)amino]-1,3,4-oxadiazol-2-yl]-1,1-dioxo-2,3-dihydro-1λ^6,5-benzothiazepin-4-one] were 96%, 92%, 948 nM, 210 nM and 568 nM.
Turning to `CC(C)Nc1nnc(-c2cc3c(cc2F)S(=O)(=O)C[C@H](N)C(=O)N3Cc2ccc(Cl)cc2)o1` [Example 464, (3R)-3-amino-5-[(4-chlorophenyl)methyl]-8-fluoro-7-[5-(isopropylamino)-1,3,4-oxadiazol-2-yl]-1,1-dioxo-2,3-dihydro-1λ^6,5-benzothiazepin-4-one], the Emax with primary human T-cells [1] (setting [3]) was 111%; in the assay on MV-3 cells (Homo sapiens, MV-3, 120 h) it was 89%. Besides, the EC50 with primary human T-cells [1] (Homo sapiens, T-cell, 120 h) amounted to 1040 nM; in the assay with MV-3 cells it was 460 nM; with primary human T-cells [2] it was 1130 nM.
Regarding `CN1CC(c2nnc(-c3cc4c(cc3F)S(=O)(=O)C[C@H](N)C(=O)N4Cc3ccc(Cl)cc3)o2)CC(F)(F)C1` (stereo partly drawn) [Example 451, (3R)-3-amino-5-[(4-chlorophenyl)methyl]-7-[5-(5,5-difluoro-1-methyl-3-piperidyl)-1,3,4-oxadiazol-2-yl]-8-fluoro-1,1-dioxo-2,3-dihydro-1λ^6,5-benzothiazepin-4-one], the “Emax proliferation (% activation)” value in the assay on primary human T-cells [1] (5 days, normalized to reference compound A1 as stimulator control = 100%, DMSO neutral control) amounted to 200 % activation. The values for the EC50 in the assay with primary human T-cells [1], with MV-3 cells and with primary human T-cells [2] were 82.1 nM, 160 nM and 153 nM, respectively. Besides, in the assay on MV-3 cells (Homo sapiens, MV-3, 120 h), the Emax is 88%.
As to `CC(C)(C)n1nnc(-c2cc3c(cc2F)S(=O)(=O)C[C@H](N)C(=O)N3Cc2ccc(Cl)cc2)n1` [Example 8, (3R)-3-amino-7-(2-tert-butyltetrazol-5-yl)-5-[(4-chlorophenyl)methyl]-8-fluoro-1,1-dioxo-2,3-dihydro-1λ^6,5-benzothiazepin-4-one], the Emax in the assay with primary human T-cells [1] (setting [3]) was 130%; in the assay on MV-3 cells (Homo sapiens, MV-3, 120 h), 96%. The EC50 in the assay with primary human T-cells [1] (Homo sapiens, T-cell, 120 h) worked out at 84.5 nM; in the assay with MV-3 cells (Homo sapiens, MV-3, 120 h) it was 70 nM; in the assay on primary human T-cells [2] it was 93.8 nM.
In the case of `CC(C)(C)n1cc(-c2cc3c(cc2F)S(=O)(=O)C[C@H](N)C(=O)N3Cc2ccc(Cl)cc2)cn1` [Example 278, (3R)-3-amino-7-(1-tert-butylpyrazol-4-yl)-5-[(4-chlorophenyl)methyl]-8-fluoro-1,1-dioxo-2,3-dihydro-1λ^6,5-benzothiazepin-4-one], the Emax with primary human T-cells [1] (setting [3]) was 102%; in the assay with MV-3 cells (Homo sapiens, MV-3, 120 h), 100%. Moreover, the EC50 with primary human T-cells [1] (Homo sapiens, T-cell, 120 h) came to 1080 nM; in the assay with MV-3 cells, 830 nM; in the assay on primary human T-cells [2] it was 177 nM.

These data come from US20240368150A1 (Hoffmann-La Roche Inc., priority 2021, published 2024).
